Data: article PMC5941726, “Evaluating Hepatobiliary Transport with ^18F-Labeled Bile Acids: The Effect of Radiolabel Position and Bile Acid Structure on Radiosynthesis and In Vitro and In Vivo Performance” (Contrast Media & Molecular Imaging, 2018)
“And” between values parts separate entries of the source, which are not always exact repeats. Identical values can stand only once. Like-named read-outs stand apart in the source and are kept apart here.

Key:
wild-type FVB-mice = assay: Dynamic PET/CT imaging of hepatobiliary transport in wild-type FVB-mice; type: in vivo, mouse; settings: wild-type mice; for Time-to-peak liver / AUC GBI (gallbladder and intestines) / AUC liver (time-activity curve) / Max% ID GBI (gallbladder and intestines) / Max% ID liver: 9 MBq i.v., 1 hour PET-scan; for Time-to-peak liver / AUC GBI (gallbladder and intestines) / AUC liver (time-activity curve) / Max% ID GBI (gallbladder and intestines) / Max% ID liver / Biliary clearance: n = 3; for AUC GBI (gallbladder and intestines) / AUC liver (time-activity curve) / Max% ID GBI (gallbladder and intestines) / Max% ID liver: normalized for 20 g mouse; for Organ uptake after intravenous injection: PET; for Injected activity found in gallbladder and intestines after 1 hour: i.v.; for Biliary clearance: cumulative amount in gallbladder & intestines / AUC blood concentration 0-60 min
Experimental: The in vivo transport characteristics of the ^18F labeled bile acids were evaluated in wild-type FVB-mice (female, 5 w). The tracer described earlier, 3β-[^18F]FCA, was also included as a reference standard. Imaging was performed with a PET/CT (FLEX Triumph II small animal PET/CT-scanner; axial field of view: 7.5 cm; 1.3 mm spatial resolution; TriFoil Imaging). For each tracer, three animals were used. The animals were housed and handled in accordance with the European Ethics Committee guidelines and the experiments were approved by the Animal Experimental Ethical Committee of Ghent University (ECD 15/69).
Food and water were provided ad libitum, but the animals were fasted overnight before a PET/CT-scan. They were anesthetized with 1.5 v : v% isoflurane in O2 and placed on a heated bed. To allow injection of the tracer, a polyethylene intravenous line was inserted in the lateral tail vein and fixed. After the animals were transferred to the scanner animal bed, a 1 hour PET-scan was started and 9 MBq tracer was injected directly after starting the scan. Following this PET-scan, 9 MBq [^18F]FDG was injected and twenty minutes later, a second PET-scan with a 20-minute acquisition time was started.
All PET-scans were obtained in list-mode and were iteratively reconstructed (50 iterations). The 1-hour scan was reconstructed in the following frames: 8 × 15 s; 16 × 30 s; 10 × 60 s; 20 × 120 s. For presentation purposes, Maximum Intensity Projection PET/CT images were generated in Amide software. The data were analyzed using Pmod software v3.405 (PMOD Technologies): Regions Of Interest (ROIs) were drawn manually over the liver, gallbladder, and intestines. On the static [^18F]FDG scan, the left ventricle was delineated and this ROI was pasted on the dynamic scan to obtain an image-derived arterial blood concentration. The uptake of radioactivity in liver, gallbladder, and intestines was expressed as a percentage of the injected dose (% ID) and normalized for the weight of a 20 g mouse. The % ID in these organs was monitored in function of time to obtain time-activity curves (TACs). Biliary clearance of the tracers was determined with equation 2 from Ghibellini et al. [14](2) Biliary clearance=cumulative amount of tracer in gallbladder&intestines/AUC blood concentration0→60 min.
The Area Under the Curve (AUC), % ID, and time-to-peak values of the TACs were determined in GraphPad Prism v3.00 Software. The obtained parameters of the different ^18F labeled bile acids were compared to 3β-[^18F]FCA-values in SPSS Statistics 23 Software. Differences between two groups were analyzed with the nonparametric Mann–Whitney U test. A p value ≤ 0.05 was considered significant.

[1] = LogD determination of the tracers; type: physicochemical; settings: n = 3, mean ± SD; read-out: LogD
Experimental: (§1) The logD-value, stability (in formulation for use and mouse serum), and identity of the tracer were assessed as described earlier. Radiochemical purity and percentage ^18F-labeling of precursor were determined by radio-TLC (silica gel TLC; with 10% MeOH in CH2Cl2 and 4 : 1 AcN : H2O, resp.).

[2] = Stability of the tracer in formulation for use; type: physicochemical; settings: formulation for use (phosphate buffered saline)
Experimental: as §1

[3] = Stability of the tracer in mouse serum; type: in vitro ADME; settings: mouse serum
Experimental: as §1

BSEP [4] = target: T1, BSEP (Homo sapiens, UniProt O95342); parameters: purchased Pharmtox; method as in PMID 28273180; settings: Ki calculated from IC50-values extracted from literature; cited from earlier work
T1 sequence (O95342 whole entry, species assumed): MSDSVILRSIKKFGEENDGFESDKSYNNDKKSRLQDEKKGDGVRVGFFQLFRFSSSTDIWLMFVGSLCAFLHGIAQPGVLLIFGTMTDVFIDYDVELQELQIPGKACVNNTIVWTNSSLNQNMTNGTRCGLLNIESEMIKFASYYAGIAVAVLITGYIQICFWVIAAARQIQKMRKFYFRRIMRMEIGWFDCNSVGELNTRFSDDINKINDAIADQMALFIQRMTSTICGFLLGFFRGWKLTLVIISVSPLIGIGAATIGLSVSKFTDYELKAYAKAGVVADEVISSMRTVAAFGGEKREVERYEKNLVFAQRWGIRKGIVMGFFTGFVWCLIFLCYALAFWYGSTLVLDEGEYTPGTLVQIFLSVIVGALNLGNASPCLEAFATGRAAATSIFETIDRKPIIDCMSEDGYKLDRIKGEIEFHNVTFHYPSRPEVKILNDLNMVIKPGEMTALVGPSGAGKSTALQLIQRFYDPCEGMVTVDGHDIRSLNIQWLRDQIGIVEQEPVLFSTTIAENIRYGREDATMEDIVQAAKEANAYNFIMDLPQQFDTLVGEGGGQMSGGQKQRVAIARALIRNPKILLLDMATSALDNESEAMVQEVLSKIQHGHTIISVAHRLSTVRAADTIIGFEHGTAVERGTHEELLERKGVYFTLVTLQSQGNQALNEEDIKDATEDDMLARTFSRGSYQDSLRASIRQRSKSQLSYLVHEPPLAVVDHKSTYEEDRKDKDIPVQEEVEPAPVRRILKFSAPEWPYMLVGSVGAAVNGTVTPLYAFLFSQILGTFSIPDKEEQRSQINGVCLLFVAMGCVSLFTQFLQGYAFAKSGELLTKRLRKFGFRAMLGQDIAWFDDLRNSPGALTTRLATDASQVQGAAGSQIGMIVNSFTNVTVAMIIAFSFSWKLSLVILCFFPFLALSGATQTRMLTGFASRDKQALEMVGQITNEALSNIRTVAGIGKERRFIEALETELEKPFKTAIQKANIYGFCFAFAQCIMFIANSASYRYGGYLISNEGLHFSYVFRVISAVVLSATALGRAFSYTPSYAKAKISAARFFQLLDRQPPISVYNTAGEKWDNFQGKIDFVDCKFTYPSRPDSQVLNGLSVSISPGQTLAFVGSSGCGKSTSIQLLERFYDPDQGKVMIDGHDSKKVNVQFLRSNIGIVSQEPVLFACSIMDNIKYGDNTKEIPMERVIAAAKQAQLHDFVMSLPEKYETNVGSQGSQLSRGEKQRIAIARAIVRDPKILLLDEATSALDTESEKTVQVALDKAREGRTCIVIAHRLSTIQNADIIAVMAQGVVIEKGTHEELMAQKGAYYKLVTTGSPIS

NTCP [5] = target: T2, NTCP (Homo sapiens, UniProt Q14973); parameters: method as in PMID 28273180; settings: Ki calculated from IC50-values extracted from literature; cited from earlier work
T2 construct: host or cells: Chinese Hamster Ovary (CHO) cells
T2 sequence (Q14973 1-349): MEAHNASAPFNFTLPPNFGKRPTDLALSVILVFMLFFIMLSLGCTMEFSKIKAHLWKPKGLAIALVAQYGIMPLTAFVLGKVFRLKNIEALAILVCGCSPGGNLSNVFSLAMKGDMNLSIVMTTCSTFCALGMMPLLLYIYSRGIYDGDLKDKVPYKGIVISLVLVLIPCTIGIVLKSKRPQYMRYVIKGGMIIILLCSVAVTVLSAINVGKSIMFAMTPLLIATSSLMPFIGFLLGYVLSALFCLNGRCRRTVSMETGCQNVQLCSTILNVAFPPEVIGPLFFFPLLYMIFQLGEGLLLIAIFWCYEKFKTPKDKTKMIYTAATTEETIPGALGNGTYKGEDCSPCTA

OATP1B1 [6] = target: T3, OATP1B1 (Homo sapiens, UniProt Q9Y6L6); parameters: host or cells: Human Embryonic Kidney (HEK) cells; method as in PMID 28273180; settings: Ki calculated from IC50-values extracted from literature; cited from earlier work
T3 sequence (Q9Y6L6 1-691): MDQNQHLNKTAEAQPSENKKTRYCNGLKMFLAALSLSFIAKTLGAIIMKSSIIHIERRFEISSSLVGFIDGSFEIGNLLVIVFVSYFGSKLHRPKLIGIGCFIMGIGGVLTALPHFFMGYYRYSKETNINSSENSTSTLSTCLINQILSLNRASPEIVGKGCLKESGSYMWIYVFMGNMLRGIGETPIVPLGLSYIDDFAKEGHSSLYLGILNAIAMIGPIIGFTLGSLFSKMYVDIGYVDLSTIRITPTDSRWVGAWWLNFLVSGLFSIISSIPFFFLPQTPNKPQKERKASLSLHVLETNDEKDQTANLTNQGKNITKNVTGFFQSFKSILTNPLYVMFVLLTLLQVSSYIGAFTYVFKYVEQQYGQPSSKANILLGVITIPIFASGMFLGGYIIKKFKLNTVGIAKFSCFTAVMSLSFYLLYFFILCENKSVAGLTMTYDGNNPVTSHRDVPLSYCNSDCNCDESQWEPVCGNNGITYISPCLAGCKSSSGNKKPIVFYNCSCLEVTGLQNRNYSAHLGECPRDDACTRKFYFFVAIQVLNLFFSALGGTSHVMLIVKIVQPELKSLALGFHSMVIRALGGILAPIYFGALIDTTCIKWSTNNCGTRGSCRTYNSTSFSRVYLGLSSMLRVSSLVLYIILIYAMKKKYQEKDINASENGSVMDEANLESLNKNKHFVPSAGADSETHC

OATP1B1 [7] = target: T3, OATP1B1
Experimental: Chinese Hamster Ovary (CHO) and Human Embryonic Kidney (HEK) cells expressing NTCP and OATP1B1, respectively (Solvo Biotechnologies), were used.
Cells were seeded in 24-well plates at 400,000 cells/well. […] All dosing solutions were formulated in the washing buffer and dosing was executed in triplicate. The incubation was stopped by placing the plates on ice and adding 1 mL ice-cold 1% BSA HBSS-solution. The supernatant was aspirated and the cells were washed twice with 2 mL ice-cold HBSS-solution. NaOH (250 μl, 0.1 M) was added to lyse the cells and the plates were shaken (15 minutes, 37°C). Aliquots of this lysate were subjected to liquid scintillation counting (TriCarb 2900 TR; Perkin Elmer) and protein determination with a BCA-assay (ThermoFisher Scientific).

BSEP [8] = target: T1, BSEP; assay: Inhibition of [^3H]TC uptake in BSEP membrane vesicles (efflux assay)
Experimental: All dosing was performed in triplicate. The plates were suspended in a 37°C water bath 1 minute before the incubation. Incubation was started by adding 10 μL of the ATP solution or buffer solution (negative control). Each well contained a final volume of 30 μL and the plates were incubated for 10 minutes at 37°C.
The contents of each well were pipetted in a glass fiber filter plate (Multiscreen HTS plates; Merck Millipore) and washed 3 times with 200 μL ice-cold buffer solution. Finally, 100 μL 0.1 M NaOH was added: lysis of the vesicles took place for 10 minutes at room temperature. An aliquot was used for liquid scintillation counting.

NTCP [9] = target: T2, NTCP; assay: Inhibition of [^3H]taurocholate uptake in CHO cells expressing NTCP (competition assay); type: cell-based; settings: for Ki: 1 μM [^3H]TC, 15 min 37°C, Cheng-Prusoff from IC50 and Km, mean ± SD n = 3
Source text: Maintenance of these cell cultures was described earlier.

Row | Structure (SMILES) | Time-to-peak liver (wild-type FVB-mice) | AUC GBI (gallbladder and intestines) (wild-type FVB-mice) | AUC liver (time-activity curve) (wild-type FVB-mice) | Max% ID GBI (gallbladder and intestines) (wild-type FVB-mice) [%] | Max% ID liver (wild-type FVB-mice) [%] | Organ uptake after intravenous injection (wild-type FVB-mice) | Injected activity found in gallbladder and intestines after 1 hour (wild-type FVB-mice) | Biliary clearance (wild-type FVB-mice) [mL/min] | Ki (OATP1B1 [7]) [nM] | Ki (BSEP [8]) [µM] | Ki (NTCP [9]) [nM] | other results
1 | C[C@H](CCC(=O)O)[C@H]1CC[C@H]2[C@@H]3[C@H](O)C[C@@H]4C[C@H]([18F])CC[C@]4(C)[C@H]3C[C@H](O)[C@]12C [3α-[^18F]FCA, 3α-[^18F]fluorocholic acid] | 3.33 ± 0.62 min and 3.33 ± 0.62^∗ min | 4184 ± 109^∗ % ID·min | 1065 ± 171^∗ % ID·min | 88.70 ± 2.38 | 58.58 ± 3.19 | exclusive hepatic uptake | approx. 80% | 0.49 ± 0.10 |  |  |  | logD [1]: 0.92 ± 0.17; Stability in its formulation [2]: stable; Stability in mouse serum [3]: stable
2 | C[C@H](CCC(=O)O)[C@H]1CC[C@H]2[C@@H]3[C@H](O)C[C@@H]4C[C@@H](F)CC[C@]4(C)[C@H]3C[C@H](O)[C@]12C [3βFCA] |  |  |  |  |  |  |  |  |  |  |  | Ki (BSEP [4]): 216 ± 53 µM; Ki (NTCP [5]): 6.18 ± 0.59 µM; Ki (OATP1B1 [6]): 9.67 ± 0.83 µM
3 | C[C@H](CCC(=O)O)[C@H]1CC[C@H]2[C@@H]3[C@H](O)C[C@@H]4C[C@@H]([18F])CC[C@]4(C)[C@H]3C[C@H](O)[C@]12C [3β-[^18F]FCA, 3β-[^18F]fluorocholic acid, reference compound] | 5.33 ± 0.24 min | 3499 ± 340 % ID·min | 1785 ± 194 % ID·min | 83.44 ± 9.27 | 63.80 ± 2.61 | exclusive hepatic uptake | approx. 80% | 0.46 ± 0.08 |  |  |  | 
4 | C[C@H](CCC(=O)NCC(=O)O)[C@H]1CC[C@H]2[C@@H]3[C@H](O)C[C@@H]4C[C@@H](F)CC[C@]4(C)[C@H]3C[C@H](O)[C@]12C [3βFGCA, 3β F glycocholic acid] |  |  |  |  |  |  |  |  | 4240 ± 160 | 87.4 ± 14.6 | 1090 ± 340 | 
5 | C[C@H](CCC(=O)O)[C@H]1CC[C@H]2[C@@H]3[C@H](O)C[C@@H]4C[C@@H](F)CC[C@]4(C)[C@H]3CC[C@]12C [3βFCDCA] |  |  |  |  |  |  |  |  | 640 ± 70 | 48.2 ± 3.94 | 910 ± 20 | 
6 | C[C@H](CCC(=O)NCCS(=O)(=O)O)[C@H]1CC[C@H]2[C@@H]3[C@H](O)C[C@@H]4C[C@H](O)CC[C@]4(C)[C@H]3C[C@H](O)[C@]12C [[^3H]TC, [^3H]taurocholate, reference compound] |  |  |  |  |  |  |  |  |  |  |  | Vmax of substrate uptake (NTCP [9]; 0–150 μM, 10 min 37°C): 200.4 ± 9.77 pmol/min·mg protein; Km (NTCP [9]; 0–150 μM, 10 min 37°C, read-out: Km (Michaelis-Menten) of substrate uptake): 15.3 ± 2.46 µM
